Measured values taken from patent US4786755A, “Diphenic acid monoamides” (Warner-Lambert Company, priority 1986, dated 1988).

test system: Sensitized Guinea Pigs; experiment: Slow-Onset (nonhistamine) Bronchospasm Induced by Antigen Challenge in Sensitized Guinea Pigs (SRSPIG); type: in vivo, guinea pig; set-up: concentration or dose not given beside the values; conditions: mepyramine pretreated, five minutes after ovalbumin
From the text: Induction and Quantitation of the Slow-Onset (nonhistamine) Bronchospasm Induced by Antigen Challenge in Sensitized Guinea Pigs (SRSPIG)
This guinea pig in vivo model was developed to quantitate the pulmonary effects of nonhistamine mediated, antigen-induced anaphylaxis. Mepyramine pretreatment is used to block the effects of histamine to permit quantitation of the effects of other biologically active mediators. The method is designed to detect drugs which inhibit the release or synthesis "other" mediators, such as leukotriene, thromboxane, etc., or drugs blocking the end organ effects of these mediators. When a sensitized guinea pig is exposed to the sensitizing antigen, it develops a systemic anaphylactic response characterized by increased pulmonary resistance and decreased dynamic compliance (CDYN). Pulmonary resistance is a measure of the changes in transpulmonary pressure and respiratory flow. Dynamic compliance is an expression of the relative changes in tidal volume and transpulmonary pressure. In this model, dynamic compliance is used to measure changes in the elastic propertie of the small airways and pulmonary resistance to measure constrictive responses of the large airways. In human asthma, small airway changes appear to be more closely related to the pathogenesis of disease. Thus, dynamic compliance effects will be weighted more heavily in our analysis of the changes produced by drugs. In the presence of mepyramine, the effects of histamine are blocked. The observed pulmonary effects are thought to be largely leukotriene mediated. In the guinea pig, thromboxanes may also be involved (1,2) and might augment the leukotriene response. Since leukotrienes are not preformed mediators and their effects are slow in onset, in the absence of the histamine effect, a bronchospasm is not seen until approximately 1.5-3 minutes after antigen administration. However, the leukotriene-mediated response is long lasting.
Animals: Male Hartley strain guinea pigs, weighing between 200 and 250 g on delivery, were used. The animals were supplied by the Charles River Co., Wilmington, MA.
Sensitization Procedure: Ovalbumin (2× recrystallized, Miles Laboratories Ltd.) is dissolved (0.2 mg/ml) in saline. The guinea pigs are given a single intraperitoneal injection of 0.5 ml of the stock solution to sensitize them. The animals are maintained normally for four to six weeks before use.
Anesthesia: Surgical anesthesia is induced by giving an IP injection of valium, 5 mg/kg, followed immediately by Innovar-Vet (Pitman-More), 0.7 ml/kg (IM). Each ml of Innovar-Vet contains 0.4 mg fentanyl, 20 mg droperidol, 1.8 mg methylparaben, and 0.2 mg propylparaben.
Surgical Preparation: The anesthetized guinea pig is shaved in the ventral neck region and on the right side of the thorax and affixed supine to a dissecting board. A midline incision is made in the neck and the trachea is exposed. The jugular vein is cannulated with PE 50 tubing to administer drugs and antigen. The trachea is cannulated with PE 240 tubing. If the protocol required measuring blood pressure, the carotid artery is isolated and cannulated with PE 50 tubing. A spear-like cannula is then inserted into the thorax to measure transpulmonary pressure. Needle electrodes are inserted into the musculature of each leg to record electrocardiograms.
Pulmonary Mechanics Methods: The tracheal cannula is connected inline to a Fleisch 000 pneumotachograph (factor calibration 10 cm H2 O=22.2 ml/sec) and a Validyne differential pressure transducer, to measure respiratory flow. Transpulmonary pressure is measured by connecting one side of a Validyne pressure transducer to the side arm of the tracheal cannula and the other side to the cannula inserted into the thorax at approximately the 5th intercostal space.
The pressure and flow signals are fed into Validyne preamplifiers and then transmitted to a pulmonary mechanics computer (Buxco). […]

SMILES	SRS-PIG, percent inhibition (CDYN) [%]
O=C(O)c1ccccc1-c1ccccc1C(=O)Nc1ccc(CCCc2ccc(Cl)c(Cl)c2)cc1 [Example 1, [1,1'-Biphenyl]-2-carboxylic acid, 2'-[[[4-[3-(3,4-dichlorophenyl)propyl]phenyl]amino]carbonyl]-]	51
O=C(O)c1ccccc1-c1ccccc1C(=O)Nc1ccc(OCCCc2ccccc2)cc1 [Example 2]	64
O=C(O)c1ccccc1-c1ccccc1C(=O)Nc1ccc(CCc2ccc(Cl)c(Cl)c2)cc1 [Example 3, [1,1'-Biphenyl]-2-carboxylic acid, 2'-[[[4-[2-(3,4-dichlorophenyl)ethyl]phenyl]amino]carbonyl]-]	16
O=C(O)c1ccccc1-c1ccccc1C(=O)Nc1cccc(CCc2ccc(Cl)c(Cl)c2)c1 [Example 4, [1,1'-Biphenyl]-2-carboxylic acid, 2'-[[[3-[2-(3,4-dichlorophenyl)ethyl]phenyl]amino]carbonyl]-]	3
O=C(O)c1ccccc1-c1ccccc1C(=O)Nc1ccc(CCCc2ccccc2)cc1 [Example 16, [1,1'-Biphenyl]-2-carboxylic acid, 2'-[[[4-(3-phenylpropyl]phenyl]amino]carbonyl]-]	33
O=C(O)c1ccccc1-c1ccccc1C(=O)Nc1ccc(CCCCCc2ccccc2)cc1 [Example 21, [1,1'-Biphenyl]-2-carboxylic acid, 2'-[[[4-(5-phenylpentyl)phenyl]amino]carbonyl]-]	21
